{"source": "patent US5858684A", "about": "“Method of screening calcium receptor-active molecules” (priority 1995, dated 1999)", "key": {"[1]": {"biological_target": "T1, bovine parathyroid cell calcium receptor (BoPCaR 1) (Bos taurus, UniProt P35384)", "T1 construct": "Xenopus oocytes were injected with BoPCaR 1, the 5.3 Kb cDNA encoding a bovine parathyroid cell calcium receptor; expressed in transfected cells; host or cells: Xenopus laevis oocytes injected with cRNA/cDNA of BoPCaR 1", "T1 sequence (P35384 20-1085)": "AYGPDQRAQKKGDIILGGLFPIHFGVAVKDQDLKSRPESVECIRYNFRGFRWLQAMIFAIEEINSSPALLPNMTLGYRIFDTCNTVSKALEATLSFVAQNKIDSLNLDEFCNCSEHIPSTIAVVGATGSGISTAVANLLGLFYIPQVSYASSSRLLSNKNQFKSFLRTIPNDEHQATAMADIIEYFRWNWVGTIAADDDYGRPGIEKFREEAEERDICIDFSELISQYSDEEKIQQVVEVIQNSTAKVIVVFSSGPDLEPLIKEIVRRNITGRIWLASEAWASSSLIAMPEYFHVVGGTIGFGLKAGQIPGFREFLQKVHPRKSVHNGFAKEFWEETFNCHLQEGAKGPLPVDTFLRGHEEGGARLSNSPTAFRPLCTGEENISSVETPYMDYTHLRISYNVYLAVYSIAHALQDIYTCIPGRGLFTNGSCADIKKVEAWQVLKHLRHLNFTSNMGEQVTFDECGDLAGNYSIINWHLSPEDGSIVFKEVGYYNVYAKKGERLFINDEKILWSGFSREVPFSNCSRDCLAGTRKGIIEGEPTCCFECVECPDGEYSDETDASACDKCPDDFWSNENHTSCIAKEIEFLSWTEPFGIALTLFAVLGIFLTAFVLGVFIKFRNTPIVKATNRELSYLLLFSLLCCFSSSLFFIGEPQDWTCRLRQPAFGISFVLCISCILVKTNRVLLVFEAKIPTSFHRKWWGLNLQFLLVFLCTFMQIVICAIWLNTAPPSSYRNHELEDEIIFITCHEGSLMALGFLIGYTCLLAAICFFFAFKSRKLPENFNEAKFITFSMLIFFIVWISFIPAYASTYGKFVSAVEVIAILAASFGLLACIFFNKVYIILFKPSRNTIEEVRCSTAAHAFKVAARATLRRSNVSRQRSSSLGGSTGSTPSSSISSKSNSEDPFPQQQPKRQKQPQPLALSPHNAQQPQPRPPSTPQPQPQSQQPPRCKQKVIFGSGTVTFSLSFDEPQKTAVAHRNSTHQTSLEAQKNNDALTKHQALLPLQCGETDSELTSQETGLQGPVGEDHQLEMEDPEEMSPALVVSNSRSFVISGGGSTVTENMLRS", "experiment": "Cl- current in Xenopus oocytes expressing BoPCaR 1", "assay_type": "cell-based", "settings": "for Cl- current response in the absence of extracellular Ca2+: no extracellular Ca2+", "method": "Following incubation, an oocyte was placed into a 100-μl plastic chamber and superfused with MBS at a flow rate of 0.5 ml/min using a peristaltic pump. Test molecules or inorganic polycations were added by rapidly moving the tubing into different buffers. Recording and current-passing electrodes were constructed from thin-wall capillary tubing pulled to a resistance of 1-3 Mohms and filled with 3M KCl. […] Currents were recorded directly onto a strip chart recorder.\nThe techniques used to clone the parathyroid calcium receptor are briefly described in this example; a more complete description of the techniques is provided in preceding sections, which describe techniques which may be used to clone additional forms of the Ca^2+ -receptor from other cell types. Poly(A^+)-enriched mRNA was initially prepared from bovine parathyroid glands by extracting with guanidinium thiocyanate, centrifugation through CsCl and oligo(dT) cellulose chromatography. […] No such currents were elicited in control eggs injected with water.\nThese responses are mediated by the following series of biochemical events:\nXenopus oocytes were injected with BoPCaR 1, the 5.3 Kb cDNA encoding a bovine parathyroid cell calcium receptor as described in Example 25. After two to three days, Cl^- currents were examined in the oocytes using a two-electrode voltage clamp.\nXenopus oocytes were injected with BoPCaR 1 as described in Example 25. After two to three days, Cl^- currents were examined in the oocytes using two electrode voltage clamp."}, "C-cell calcium receptor": {"biological_target": "T2, C-cell calcium receptor (Rattus norvegicus, UniProt P48442)", "T2 sequence (P48442 20-1079)": "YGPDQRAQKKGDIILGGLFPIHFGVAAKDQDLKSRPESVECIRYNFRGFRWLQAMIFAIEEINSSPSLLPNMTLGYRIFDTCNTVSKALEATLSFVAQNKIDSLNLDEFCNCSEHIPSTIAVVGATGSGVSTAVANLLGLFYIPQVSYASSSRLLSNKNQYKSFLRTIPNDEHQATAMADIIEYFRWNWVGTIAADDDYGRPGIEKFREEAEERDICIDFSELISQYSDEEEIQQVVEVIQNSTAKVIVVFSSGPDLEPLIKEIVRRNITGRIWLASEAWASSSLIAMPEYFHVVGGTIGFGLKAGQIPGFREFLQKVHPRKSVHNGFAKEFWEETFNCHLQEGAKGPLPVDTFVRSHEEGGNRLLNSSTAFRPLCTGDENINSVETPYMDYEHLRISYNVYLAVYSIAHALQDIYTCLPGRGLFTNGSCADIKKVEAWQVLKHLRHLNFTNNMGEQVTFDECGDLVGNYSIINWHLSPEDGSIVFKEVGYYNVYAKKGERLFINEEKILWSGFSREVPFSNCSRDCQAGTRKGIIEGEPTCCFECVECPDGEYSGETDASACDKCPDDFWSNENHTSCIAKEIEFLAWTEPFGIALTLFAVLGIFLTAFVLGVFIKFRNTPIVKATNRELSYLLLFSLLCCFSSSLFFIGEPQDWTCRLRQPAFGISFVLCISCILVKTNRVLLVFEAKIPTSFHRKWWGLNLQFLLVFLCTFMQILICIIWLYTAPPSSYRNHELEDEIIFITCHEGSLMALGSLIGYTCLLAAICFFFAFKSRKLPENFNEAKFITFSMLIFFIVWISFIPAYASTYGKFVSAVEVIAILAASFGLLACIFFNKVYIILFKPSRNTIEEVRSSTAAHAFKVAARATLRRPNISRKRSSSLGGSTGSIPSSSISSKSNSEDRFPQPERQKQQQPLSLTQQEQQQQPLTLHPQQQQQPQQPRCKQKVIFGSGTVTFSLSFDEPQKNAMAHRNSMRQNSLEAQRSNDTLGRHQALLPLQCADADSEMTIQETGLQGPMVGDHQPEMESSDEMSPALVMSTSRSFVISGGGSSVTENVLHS", "assay_type": "cell-based", "design": "Neoplastic C-cells derived from a rat medullary thyroid carcinoma (rMTC 6-23); host or cells: rMTC 6-23", "excerpt": "To assess the effects of molecular polycations on C-cells, a neoplastic cell line, derived from a rat medullary thyroid carcinoma (rMTC 6-23 cells) was used."}, "[2]": {"settings": "rMTC 6-23 cells, fura-2, inactive = no increase in cytosolic Ca2+ at 1-5 mM"}}, "note": "“Also recorded” adds a separate entry of the source."}
{"smiles": "COc1cccc([C@@H](C)NCCCc2ccccc2)c1", "note": "(single isomer, unassigned) [NPS R-467]", "values": [{"measurement": "potentiation of response to submaximal extracellular Ca2+", "setting": "[1]", "value": "potentiate the response"}]}
{"smiles": "NCCCNCCCCNCCCNCCCNCCCNC(=O)Cc1c[nH]c2ccccc12", "note": "[NPS 019]", "values": [{"measurement": "Cl- current", "setting": "[1]; 1 mM extracellular Ca2+", "value": "oscillatory increases"}, {"measurement": "Cl- current response in the absence of extracellular Ca2+", "setting": "[1]", "value": "persisted"}, {"measurement": "transient increase in [Ca2+]i", "setting": "C-cell calcium receptor; 10 μM, 0.5 mM [Ca2+]", "value": "transient increase"}]}
{"smiles": "COc1cccc([C@@H](C)NCCCc2ccccc2Cl)c1", "note": "[NPS R-568, (R)-(+)-N-[3-(2-chlorophenyl)propyl]-amethyl-α-3-methoxybenzylamine]", "values": [{"measurement": "potentiation of response to submaximal extracellular Ca2+", "setting": "[1]", "value": "potentiate the response; also recorded: potentiated the responses to submaximal concentrations"}, {"measurement": "Cl- current response in the absence of extracellular Ca2+", "setting": "[1]", "value": "abolished"}, {"measurement": "EC50", "setting": "C-cell calcium receptor; [2]", "value": 1900, "unit": "nM"}]}
{"smiles": "NC[C@@H]1O[C@H](O[C@H]2[C@@H](O)[C@H](O[C@@H]3[C@@H](O)[C@H](N)C[C@H](N)[C@H]3O[C@H]3O[C@H](CN)[C@@H](O)[C@H](O)[C@H]3N)O[C@@H]2CO)[C@H](N)[C@@H](O)[C@@H]1O", "note": "[Neomycin]", "values": [{"measurement": "concentrations eliciting increases in Cl- current", "setting": "[1]", "value": "20 to 100", "unit": "µM"}, {"measurement": "large inward currents: effective concentration", "setting": "[1]; cRNA-injected oocytes", "value": 200, "unit": "µM"}, {"measurement": "Cl- current response in the absence of extracellular Ca2+", "setting": "[1]", "value": "persists"}, {"measurement": "effect on basal [Ca2+]i", "setting": "C-cell calcium receptor", "value": "fails to affect basal or evoked increases; also recorded: without effect on basal"}, {"measurement": "EC50 C-CELL (Table 6)", "setting": "C-cell calcium receptor; [2]", "value": "inactive"}]}
